Laboratory results taken from patent US5565447A, “Indole derivatives” (Laboratorios Almirall S.A., priority 1992, dated 1996).
Read-outs that look alike come from different tables or passages of the source.

How the values were obtained:
5HT1A receptors = target: T1, 5HT1A receptors (Rattus norvegicus, UniProt P19327); assay: Binding to 5HT1A receptors (3H-8-OH-DPAT displacement, rat hippocampus membranes)
T1 sequence (P19327 1-422): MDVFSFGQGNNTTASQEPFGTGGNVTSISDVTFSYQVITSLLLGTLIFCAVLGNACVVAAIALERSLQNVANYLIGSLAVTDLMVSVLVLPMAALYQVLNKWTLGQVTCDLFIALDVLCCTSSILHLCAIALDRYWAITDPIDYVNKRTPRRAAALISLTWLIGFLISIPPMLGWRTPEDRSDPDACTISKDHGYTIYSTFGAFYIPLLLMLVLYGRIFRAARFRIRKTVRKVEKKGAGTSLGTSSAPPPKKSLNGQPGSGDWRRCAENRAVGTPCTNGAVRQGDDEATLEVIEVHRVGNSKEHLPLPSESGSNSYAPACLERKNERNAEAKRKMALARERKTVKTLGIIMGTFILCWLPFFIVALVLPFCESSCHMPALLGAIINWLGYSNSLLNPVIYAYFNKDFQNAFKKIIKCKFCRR
Protocol: Binding to 5HT1A receptors
Assays were performed essentially as described by Gozlan et al (1983). Varying amounts of tested drugs were added to 1 mL final volume reaction mixtures that included 100 μg of rat hippocampus membrane protein, 0.5 nM ^3 H-8-OH-DPAT, 4 mM CaCl2, 0.1% ascorbic acid, 10 μM pargyline and 50 mM Tris HCl buffer, pH 7.4. After incubation at 25° C. for 30 minutes, samples were filtered under reduced pressure using glass fibre filters. The filters were washed with ice-cold buffer and dried. Non-specific binding was defined as that obtained in the presence of 10 μM 5HT. Radioactivity was quantified by scintillation counting and data was handled as described for the 5HT1D binding assay. (Gozlan H.; El Mestikawy S.; Pichat L.; Glowinski J. and Hamon M. (1983). Identification of presynaptic serotonin autoreceptors using a new ligand:^3 H-PAT. Nature 305, 140-142).

5HT1D receptors [1] = target: T2, 5HT1D receptors (Bos taurus, UniProt F1MGM3); assay: Binding to 5HT1D receptors (125I-GTI displacement, calf caudate nucleus membranes)
T2 construct: calf caudate nucleus membrane protein; from tissue; host or cells: calf caudate nucleus membranes
T2 sequence (F1MGM3 1-403): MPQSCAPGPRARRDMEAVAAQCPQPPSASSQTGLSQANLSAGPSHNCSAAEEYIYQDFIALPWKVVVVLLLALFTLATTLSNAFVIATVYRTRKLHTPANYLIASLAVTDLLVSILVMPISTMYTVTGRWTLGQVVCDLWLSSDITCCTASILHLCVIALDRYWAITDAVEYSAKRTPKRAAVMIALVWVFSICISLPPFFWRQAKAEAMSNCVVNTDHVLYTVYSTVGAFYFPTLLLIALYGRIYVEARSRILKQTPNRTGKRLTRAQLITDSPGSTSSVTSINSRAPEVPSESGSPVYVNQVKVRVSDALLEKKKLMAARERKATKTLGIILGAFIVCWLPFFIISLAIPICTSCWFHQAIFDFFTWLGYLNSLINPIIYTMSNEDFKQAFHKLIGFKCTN
Protocol: (§1) Binding to 5HT1D Receptors
(§2) Assays were performed essentially as described by Bruinvels et al. Varying amounts of tested drugs were added to 0.25 mL final volume reaction that included 100 μg of calf caudate nucleus membrane protein, 100 pM (Serotonin-5-0-Carboxymethyl-Glycyl[^125 I]Tyrosinamide (^125 I-GTI), 4 mM CaCl2 and 50 mM Tris HCl buffer, pH 7.4. After incubation at 37° C. for 30 minutes, samples were filtered under reduced pressure using glass fibre filters. The filters were washed with ice-cold buffer and dried. Non-specific binding was defined as that obtained in the presence of 10 μM 5HT. Trapped radioactivity was quantified using a gamma counter. Displacement curves were constructed and the concentration displacing 50% of radioligand was calculated for each tested compound using non-linear regression. Data from at least three different assays run in duplicate was averaged. (Bruinvels A. T.; Lery H.; Palacios J. M. and Hoyer D. 5-HT1D binding sites in various species: similar pharmacological profile in dog, monkey, calf, guinea-pig and human brain membranes. Naunyn-Schmiedeberg's Arch. Pharmacol. (in press)).

5HT1D receptors [2] = assay: as above; details: ratio of binding IC50 values, 3H-8-OH-DPAT over 125I-GTI
Protocol: as §1, §2

Dog saphenous vein = Dog saphenous vein isometric recording (contraction, pD2); type: cell-based, beagle dog; details: Canis lupus familiaris; isolated lateral saphenous vein rings, 37° C., in presence of 5-HT2, H1 and muscarinic antagonists; serotonin 1 μM as reference standard
Protocol: Isometric recordings were performed essentially as described by Humphrey et al (1988). Briefly, lateral saphenous vein ring preparations (3 mm. wide) removed from anaesthetized beagle dogs were suspended under 2g. resting tension, in 30 mL organ baths containing Krebs at 37° C. The experiments were carried out in the presence of 5-HT2, H1 and muscarinic antagonists and serotonin 1 μM was used as quantitative reference standard.
(Humphrey P. P. A.; Feniuk W.; Perren M. J.; Connor H. E.; Oxford A. W .; Coates I. H. and Butina D. (1988). GR 43175, a selective agonist for the 5-HT1-like receptor in dog isolated saphenous vein. Br. J. Pharmac. 94, 1123-1132).

5-HT1A receptor [3] = details: background statement; cited from earlier work
5-HT1A receptor [4] = details: attributed to affinity for 5-HT1A receptor; cited from earlier work
5-HT1D receptor = details: background statement; cited from earlier work
"5-HT1 -like" receptors = details: agonistic action at "5-HT1 -like" receptors; background statement; cited from earlier work
[5] = 5HT1A, rat hippocampus membrane, 0.5 nM 3H-8-OH-DPAT, pH 7.4, 25° C., 30 minutes, read-out: Binding IC50 3H-8-OH-DPAT
[6] = 5HT1D, calf caudate nucleus membrane, 100 pM 125I-GTI, pH 7.4, 37° C., 30 minutes, read-out: Binding IC50 125I-GTI

SMILES	IC50 (5HT1A receptors; [5]) [nM]	IC50 (5HT1D receptors [1]; [6]) [nM]	5HT1A/5HT1D (5HT1D receptors [2])	EC50 (Dog saphenous vein) [nM]	IC50 (5HT1A receptors) [nM]	IC50 (5HT1D receptors [1]) [nM]	vasoconstrictor action in the carotid vascular bed ("5-HT1 -like" receptors)	also measured
CN(C)CCc1c[nH]c2ccc(CS(=O)(=O)N3CCCC3)cc12.Cl [Compound 1, 1-[[3-(2-dimethylaminoethyl)-5-indolyl]methanesulphonyl]-pyrrolidine hydrochloride]	825 ± 69	10.7 ± 0.4	77.1	871	–	–	–	–
CN(C)CCc1c[nH]c2ccc(CS(=O)(=O)N3CCCCC3)cc12.Cl [Compound 2, 1-[[3-(2-dimethylaminoethyl)-5-indolyl]methanesulphonyl]piperidine hydrochloride]	–	–	49.3	–	340 ± 0.5	6.9 ± 0.4	–	–
CCOC(=O)N1CCN(S(=O)(=O)Cc2ccc3[nH]cc(CCN(C)C)c3c2)CC1 [Compound 11]	850 ± 40	–	265.6	339	–	3.2 ± 0.3	–	–
CNS(=O)(=O)Cc1ccc2[nH]cc(CCN(C)C)c2c1 [Sumatriptan, reference compound]	–	10.4 ± 1	44.2	871	460 ± 67	–	–	affinity for 5-HT1A receptor (5-HT1A receptor [3]): very important affinity for 5-HT1A receptor; hypotension and other side effects (5-HT1A receptor [4]): causes hypotension by a central nervous system action and other side effects; affinity for 5-HT1D receptor (5-HT1D receptor): high affinity for 5-HT1D receptor
CN1C[C@H](C(=O)N[C@]2(C)O[C@@]3(O)[C@@H]4CCCN4C(=O)[C@H](Cc4ccccc4)N3C2=O)C=C2c3cccc4[nH]cc(c34)C[C@H]21 [ergotamine]	–	–	–	–	–	–	vasoconstrictor action in the carotid vascular bed	–
NCCc1c[nH]c2ccc(O)cc12 [serotonine, 5-Hydroxytryptamine]	–	–	–	–	–	–	vasoconstrictor action in the carotid vascular bed	–
